{"source": "patent US11077045B2", "about": "“Blood microperfusion to skin by Shilajit” (Natreon, Inc., priority 2018, dated 2021)", "origin": "cited, not measured here", "key": {"[1]": {"settings": "low-dose administration, rats"}, "[2]": {"settings": "transdermal preparation, subjects with diabetes"}}, "data": [{"compound": "N=C(N)NCCC[C@H](N)C(=O)O", "note": "[L-arginine]", "values": [{"measurement": "microperfusion of rat skin", "setting": "[1]", "value": "increase microperfusion"}, {"measurement": "blood flow in feet", "setting": "[2]", "value": "improved"}]}]}
